Experimental findings from patent US12122816B2, “Long acting peptide tyrosine tyrosine (PYY) analogs and methods of use” (Intarcia Therapeutics, Inc., priority 2020, dated 2024) are described below.

One data set addresses T1, human Y1 receptor (Homo sapiens, UniProt P25929).
T1 sequence (P25929 1-384): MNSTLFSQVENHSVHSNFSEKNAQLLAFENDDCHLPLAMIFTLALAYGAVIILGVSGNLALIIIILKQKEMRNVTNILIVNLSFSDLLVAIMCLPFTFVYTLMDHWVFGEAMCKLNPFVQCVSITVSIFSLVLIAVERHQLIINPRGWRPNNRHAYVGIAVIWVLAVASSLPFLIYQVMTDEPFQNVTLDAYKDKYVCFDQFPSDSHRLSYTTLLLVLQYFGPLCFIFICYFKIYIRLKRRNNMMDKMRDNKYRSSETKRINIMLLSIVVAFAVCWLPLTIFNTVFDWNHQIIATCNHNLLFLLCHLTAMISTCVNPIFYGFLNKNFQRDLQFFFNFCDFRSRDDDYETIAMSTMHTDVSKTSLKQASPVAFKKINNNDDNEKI
The data set can be described thus: NPY receptor functional assay (cAMP, HEK-CNG cells, ACTOne membrane potential dye). The class given is cell-based. An excerpt: The NPY family of G-protein coupled receptors include Y1, Y2, Y4, and Y5 in humans and rats. […] Following agonist binding, the receptor-G protein complex activates a downstream intracellular signaling cascade which leads to inhibition of adenylate cyclase and a reduction in intracellular cAMP levels.
HEK-CNG cells stably expressing the human or rat Y1, Y2, Y4 or Y5 receptors (Codex Biosolutions) were used to characterize the functional potency of peptide agonists using the ActOne™ membrane potential dye kit (Codex Biosolutions). In addition to each NPY receptor, each cell line encodes a proprietary exogenous Cyclic Nucleotide-Gated (CNG) channel (Codex Biosolutions). The channel is activated by elevated intracellular levels of cAMP, resulting in ion flux and cell membrane depolarization which can be detected with a calcium sensitive dye or fluorescent membrane potential (MP) dye. Cells were carried in growth media containing 90% DMEM, 10% FBS, 250 mcg/mL G418 and 1 mcg/mL puromycin for no more than 15 passages.
Prior to testing, cells were counted and dispensed at 14,000 cells per well (Y1, Y4 and Y5) or 28,000 cells per well (Y2) into black 384 well Poly-D-Lysine plates at 20 mcL per well. Covered plates were then incubated at room temperature for 30 minutes followed by an overnight incubation at 37° C. in 5% C02. The following day, media was removed and wells were washed once with 40 mcL Dulbecco's phosphate buffered saline. […] Ten microliters of experimental peptide or peptide standard was added in triplicate to wells and incubated for 50 minutes at room temperature in the dark. Following this incubation step, plates were read again as before (final read).
NPY receptor activation, leading to a reduction in intracellular cAMP levels, is detected as a decrease in isoproteranol induced fluorescent signal. Peptide standard and experimental values were initially transformed in excel using the formula: final read/initial read. […] Normalized data was analyzed from triplicate tests and used to estimate the EC50 for each test peptide on each receptor. Data was fit in GraphPad Prism software (v8.2.1) using a 3-parameter logistic curve model: Y=Bottom+(Top−Bottom)/(1+10^((LogEC50−X))). EC50 values were converted to pEC50 values using the formula: pEC50=−Log(EC50).

Data set [1] can be described thus: In vitro stability in subcutaneous (SC) tissue homogenates. As to conditions: subcutaneous tissue homogenate, pH 7.4; human SC tissue homogenate 1.0 mg protein/mL, 10 mcM peptide, 37° C.; read-out: (H)SC tissue stability t½ (converted). It counts as in vitro ADME. As for the experimental part:
In vitro incubations in subcutaneous (SC) tissue homogenates were used to characterize the ability of peptides to resist pre-systemic degradation by proteases and peptidases after SC administration. […] Peptides with high SC bioavailability are stable in this assay, while peptides with low SC bioavailability are unstable in this assay.
Human SC tissue was homogenized in cold 25 mM HEPES buffer (pH 7.4, 10-fold volume based on sample weight), and then filtered through a double layer of cheesecloth. The filtrates were aliquoted, flash frozen on a methanol/dry ice bath and stored at −80° C. The protein concentration of each pooled batch was determined using the BCA protein assay. Thawed stocks of human SC tissue homogenates were diluted to 1.0 mg protein/mL in 25 mM HEPES buffer (pH 7.4) and aliquoted into a 96-well plate. The diluted SC homogenates were pre-warmed for 10 minutes at 37° C. […] Reactions were maintained at 37° C. in a shaking water bath. […] Quenched samples were centrifuged at 2178×g for 10 min and then a portion of the supernatants were transferred to a clean 96-well plate and diluted 1:10 with water. Samples were analyzed by UPLC-MS/MS.

Structures are written as SMILES.

As a reminder, the EC50 is the concentration at which the effect is half-maximal. The low end stands for higher potency in that assay, the high end for lower potency in that assay.

Molecule `CC(C)C[C@H](NC(=O)[C@H](Cc1ccc(O)cc1)NC(=O)[C@H](Cc1c[nH]cn1)NC(=O)[C@H](CCCNC(=N)N)NC(=O)[C@H](CC(C)C)NC(=O)[C@H](CC(=O)O)NC(=O)[C@@H](CCCCNC(=O)CC[C@H](NC(=O)CC[C@H](NC(=O)CCCCCCCCCCCCCCCCCCC(=O)O)C(=O)O)C(=O)O)NC(=O)[C@H](Cc1ccc(O)cc1)NC(=O)[C@H](Cc1ccc(O)cc1)NC(=O)[C@H](CCCNC(=N)N)NC(=O)[C@H](CC(N)=O)NC(=O)[C@H](Cc1c[nH]c2ccccc12)NC(=O)[C@H](CCC(=O)O)NC(=O)[C@H](CCC(=O)O)NC(=O)[C@@H]1CCCN1C(=O)[C@H](CO)NC(=O)[C@H](C)NC(=O)[C@H](CC(=O)O)NC(=O)[C@H](CCCCN)NC(=O)CNC(=O)[C@@H]1CCCN1C(=O)[C@H](C)NC(=O)[C@H](CCC(=O)O)NC(=O)[C@@H]1CCCN1C(=O)[C@H](CCCCN)NC(=O)[C@@H]1CCCN1)C(=O)N[C@@H](CC(N)=O)C(=O)N[C@@H](Cc1c[nH]c2ccccc12)C(=O)N[C@@H](CC(C)C)C(=O)N[C@H](C(=O)N[C@@H](CCCNC(=N)N)C(=O)N[C@@H](CCC(N)=O)C(=O)N[C@@H](CCCNC(=N)N)C(=O)N[C@@H](Cc1ccccc1)C(N)=O)[C@@H](C)O` [Compound A14] had an EC50 at human Y1 receptor of 3.16 nM. Moreover, in data set [1], the half-life at 10 mcM was 4.5 h.
